For the experiment, the system named is CD2F1 mice, L1210 leukemia ip, survival T/C. As to the kind of experiment: NCI In Vivo Anticancer Drug Screen. Data for tumor model L1210 Leukemia (intraperitoneal) in CD2F1 (CDF1) mice. Particulars: higher = longer survival. The method in brief: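 Implant tumor; dose compound or vehicle; measure endpoint in both groups; report treated divided by control.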

Setting [1] is: endpoint: mean survival time, dose: 100.0 mg/kg/injection, schedule: Q01DX001 (ip), vehicle: saline with Tween-80.
The mark [2] stands for this setting: endpoint: mean survival time, dose: 200.0 mg/kg/injection, schedule: Q01DX001 (ip), vehicle: saline with Tween-80.
Where [3] appears, read: endpoint: mean survival time, dose: 100.0 mg/kg/injection, schedule: Q01DX009 (ip), vehicle: saline with Tween-80.
The mark [4] stands for this setting: endpoint: mean survival time, dose: 100.0 mg/kg/injection, schedule: Q04DX003 (ip), vehicle: saline with Tween-80.
[5] abbreviates: endpoint: mean survival time, dose: 200.0 mg/kg/injection, schedule: Q01DX009 (ip), vehicle: saline with Tween-80.
[6] abbreviates: endpoint: mean survival time, dose: 200.0 mg/kg/injection, schedule: Q04DX003 (ip), vehicle: saline with Tween-80.
[7] abbreviates: endpoint: mean survival time, dose: 400.0 mg/kg/injection, schedule: Q04DX003 (ip), vehicle: saline with Tween-80.
[8] abbreviates: endpoint: mean survival time, dose: 400.0 mg/kg/injection, schedule: Q01DX009 (ip), vehicle: saline with Tween-80.
Where [9] appears, read: endpoint: mean survival time, dose: 25.0 mg/kg/injection, schedule: Q01DX009 (ip), vehicle: saline with Tween-80.
Where [10] appears, read: endpoint: mean survival time, dose: 50.0 mg/kg/injection, schedule: Q01DX009 (ip), vehicle: saline with Tween-80.
Setting [11] is: endpoint: mean survival time, dose: 25.0 mg/kg/injection, schedule: Q04DX002 (ip), vehicle: saline with Tween-80.
Setting [12] is: endpoint: mean survival time, dose: 50.0 mg/kg/injection, schedule: Q04DX002 (ip), vehicle: saline with Tween-80.
Setting [13] is: endpoint: mean survival time, dose: 100.0 mg/kg/injection, schedule: Q04DX002 (ip), vehicle: saline with Tween-80.
[14] abbreviates: endpoint: mean survival time, dose: 200.0 mg/kg/injection, schedule: Q04DX002 (ip), vehicle: saline with Tween-80.
Setting [15] is: endpoint: mean survival time, dose: 100.0 mg/kg/injection, schedule: Q01DX001 (ip), vehicle: saline.

“And” between values parts separate entries of the source, which are not always exact repeats. Identical values can stand only once. Inconclusive results and toxic doses are left out.

As for `CC(C)CCCC(C)C1CCC2C3CC(C(=O)O)C(C)(CCC(=O)O)C3CCC12C` (stereo unspecified), the T/C reads like this: (endpoint: mean survival time, dose: 75.0 mg/kg/injection, schedule: Q01DX001 (ip), vehicle: other) 108 % of control; (endpoint: mean survival time, dose: 150.0 mg/kg/injection, schedule: Q01DX001 (ip), vehicle: other) 104 % of control.

In the case of `CSc1nc(N)nc2n[nH]nc12`, the T/C is 97 % of control (endpoint: mean survival time, dose: 100.0 mg/kg/injection, schedule: Q01DX001 (ip), vehicle: Klucel (hydroxypropylcellulose) (HPC)); 105 % of control (endpoint: mean survival time, dose: 200.0 mg/kg/injection, schedule: Q01DX001 (ip), vehicle: Klucel (hydroxypropylcellulose) (HPC)); 103 % of control (endpoint: mean survival time, dose: 400.0 mg/kg/injection, schedule: Q01DX001 (ip), vehicle: Klucel (hydroxypropylcellulose) (HPC)).

Turning to `CC(=O)Nc1c(F)c(F)c(F)c(F)c1F`, the T/C under setting [1] is 102 % of control; the T/C under setting [2] is 95 % of control; the T/C (endpoint: mean survival time, dose: 400.0 mg/kg/injection, schedule: Q01DX001 (ip), vehicle: saline with Tween-80) is 94 % of control.

Consider `CC1=NN(c2ccccc2)C(=O)C1N=Nc1ccc([As](=O)(O)O)c(O)c1` (stereo unspecified), for which the T/C under setting [3] is 103 % of control; the T/C under setting [4] was 106 % of control; the T/C under setting [5] is 97 % of control; the T/C under setting [6] was 100 % of control; the T/C under setting [7] is 101 % of control.

For the compound `CCOC(=O)c1[nH]c(C2OC(CO)C(O)C2O)nc1O` (stereo unspecified), the T/C (endpoint: median survival time, dose: 49.9 mg/kg/injection, schedule: Q01DX005 (ip), vehicle: saline) is 96 % of control; the T/C (endpoint: median survival time, dose: 99.7 mg/kg/injection, schedule: Q01DX005 (ip), vehicle: saline) is 98 % of control; the T/C (endpoint: median survival time, dose: 199.3 mg/kg/injection, schedule: Q01DX005 (ip), vehicle: saline) was 96 % of control.

`Cc1c(C)c([N+](=O)[O-])c(Br)c(C)c1[N+](=O)[O-]`: the T/C runs as follows: under setting [3], 103 % of control; under setting [4], 95 % of control; under setting [5], 97 % of control; under setting [6], 88 % of control; under setting [8], 101 % of control; under setting [7], 87 % of control.

Regarding `O=S(=O)(SC(Cl)(Cl)Cl)c1ccc(Cl)cc1`, the T/C (endpoint: mean survival time, dose: 12.5 mg/kg/injection, schedule: Q01DX009 (ip), vehicle: saline sonified) was 103 % of control; the T/C (endpoint: mean survival time, dose: 25.0 mg/kg/injection, schedule: Q01DX009 (ip), vehicle: saline sonified) was 102 % of control; the T/C under setting [9] is 103 % of control; the T/C (endpoint: mean survival time, dose: 50.0 mg/kg/injection, schedule: Q01DX009 (ip), vehicle: saline sonified) is 102 % of control; the T/C under setting [10] was 98 % of control; the T/C under setting [1] was 91 % of control. Besides, under setting [3], the T/C was 98 % of control.

As for `CCNc1nnc(N=Nc2ccccc2)s1`, the T/C under setting [11] is 91 % of control, the T/C under setting [12] is 95 % of control, the T/C under setting [13] was 95 % of control and the T/C under setting [14] is 88 % of control.

In the case of `CN=C(NC)c1ccc(NC(=O)c2ccc(C(=O)Nc3ccc(C(=NC)NC)cc3)c(N)c2)cc1`, the T/C (endpoint: mean survival time, dose: 2.25 mg/kg/injection, schedule: Q01DX Z (ip), vehicle: water) was 176 % of control and the T/C (endpoint: mean survival time, dose: 4.5 mg/kg/injection, schedule: Q01DX Z (ip), vehicle: water) was 176 % of control.

For `CCNC(=O)OCc1c(COC(=O)NCC)c(-c2ccc(Cl)c(Cl)c2)n2c1CCC2`, the T/C was 101 % of control (endpoint: mean survival time, dose: 0.78 mg/kg/injection, schedule: Q01DX009 (ip), vehicle: saline with Tween-80); 108 % of control (endpoint: mean survival time, dose: 1.56 mg/kg/injection, schedule: Q01DX009 (ip), vehicle: saline with Tween-80); 91 % of control and 94 % of control and 111 % of control under setting [10].

Take `NC(=O)c1csc(COCC(O)CO)n1` (stereo unspecified): the T/C was 101 % of control (endpoint: median survival time, dose: 33.0 mg/kg/injection, schedule: Q01DX009 (ip), vehicle: water); 103 % of control (endpoint: median survival time, dose: 66.0 mg/kg/injection, schedule: Q01DX009 (ip), vehicle: water); 107 % of control (endpoint: median survival time, dose: 132.0 mg/kg/injection, schedule: Q01DX009 (ip), vehicle: water); 101 % of control (endpoint: median survival time, dose: 264.0 mg/kg/injection, schedule: Q01DX009 (ip), vehicle: water).

With `CCCCCCCCC(CCCCCC)CCCCCCCC`, the T/C reads like this: under setting [15], 96 % of control; (endpoint: mean survival time, dose: 200.0 mg/kg/injection, schedule: Q01DX001 (ip), vehicle: saline) 96 % of control; (endpoint: mean survival time, dose: 400.0 mg/kg/injection, schedule: Q01DX001 (ip), vehicle: saline) 97 % of control.

Consider `COc1ccc(OC)c2[nH]c(=O)c(CCC(=O)O)nc12`, for which the T/C by setting is: under setting [1], 98 % of control; under setting [2], 92 % of control.

Turning to `Nc1cccc(C(=O)O)c1C(=O)O`, the T/C under setting [9] is 93 % of control.

Regarding `Cc1cc(C)c(NC2=NCCS2)cc1C`, the T/C reads like this: under setting [11], 101 % of control; under setting [12], 104 % of control; under setting [13], 101 % of control.

Take `CCCc1nc(N)nc(N)n1`: the T/C runs as follows: under setting [10], 104 % of control; under setting [3], 104 % of control; under setting [5], 116 % of control.

With `CCCCC(CC)CNC(=O)CI` (stereo unspecified), the T/C under setting [15] is 96 % of control.

`CNC(=O)c1n[nH]c(C)c1[N+](=O)[O-]`: the T/C runs as follows: (endpoint: mean survival time, dose: 25.0 mg/kg/injection, schedule: Q01DX009 (ip), vehicle: Klucel (hydroxypropylcellulose) (HPC)) 107 % of control; (endpoint: mean survival time, dose: 50.0 mg/kg/injection, schedule: Q01DX009 (ip), vehicle: Klucel (hydroxypropylcellulose) (HPC)) 107 % of control; (endpoint: mean survival time, dose: 100.0 mg/kg/injection, schedule: Q01DX009 (ip), vehicle: Klucel (hydroxypropylcellulose) (HPC)) 107 % of control; (endpoint: mean survival time, dose: 200.0 mg/kg/injection, schedule: Q01DX009 (ip), vehicle: Klucel (hydroxypropylcellulose) (HPC)) 104 % of control; (endpoint: mean survival time, dose: 400.0 mg/kg/injection, schedule: Q01DX009 (ip), vehicle: Klucel (hydroxypropylcellulose) (HPC)) 102 % of control.

With `CCOC(=O)CC(C)(O)Cc1ccccc1` (stereo unspecified), the T/C (endpoint: mean survival time, dose: 100.0 mg/kg/injection, schedule: Q04DX003 (ip), vehicle: acetone) was 96 % of control; the T/C (endpoint: mean survival time, dose: 200.0 mg/kg/injection, schedule: Q04DX003 (ip), vehicle: acetone) is 87 % of control; the T/C (endpoint: mean survival time, dose: 400.0 mg/kg/injection, schedule: Q04DX003 (ip), vehicle: acetone) was 102 % of control.

For `CCN(CCNC(=O)Nc1ccccc1OC)c1ccccc1`, the T/C was 98 % of control under setting [13]; 94 % of control under setting [14]; 94 % of control (endpoint: mean survival time, dose: 400.0 mg/kg/injection, schedule: Q04DX002 (ip), vehicle: saline with Tween-80).

For `COc1cccc(C#Cc2ccccc2NC(C)=O)c1`, the T/C by setting is: under setting [3], 91 % of control; under setting [5], 86 % of control; under setting [8], 94 % of control.

Turning to `CC1CCC2(OC1)OC1C(O)C3C4CCC5CC(OC6OC(CO)C(OC7OC(CO)C(O)C(OC8OCC(O)C(O)C8O)C7OC7OC(CO)C(O)C(OC8OC(CO)C(O)C(O)C8O)C7O)C(O)C6O)C(O)CC5(C)C4CCC3(C)C1C2C` (stereo unspecified), the T/C is, setting by setting: (endpoint: mean survival time, dose: 5.0 mg/kg/injection, schedule: Q01DX009 (ip), vehicle: saline) 92 % of control; (endpoint: mean survival time, dose: 6.25 mg/kg/injection, schedule: Q01DX001 (ip), vehicle: saline with Tween-80) 96 % of control; (endpoint: mean survival time, dose: 10.0 mg/kg/injection, schedule: Q01DX009 (ip), vehicle: saline) 93 % of control; (endpoint: mean survival time, dose: 12.5 mg/kg/injection, schedule: Q01DX001 (ip), vehicle: saline with Tween-80) 103 % of control; (endpoint: mean survival time, dose: 20.0 mg/kg/injection, schedule: Q01DX009 (ip), vehicle: saline) 96 % of control; (endpoint: mean survival time, dose: 25.0 mg/kg/injection, schedule: Q01DX001 (ip), vehicle: saline with Tween-80) 100 % of control. Besides, the T/C (endpoint: mean survival time, dose: 40.0 mg/kg/injection, schedule: Q01DX009 (ip), vehicle: saline) was 102 % of control.

In the case of `COc1cc(C(C)=O)cc([N+](=O)[O-])c1O`, the T/C by setting is: under setting [10], 102 % of control; under setting [3], 91 % of control.

`CCCCCCCCCCCCCCCC[n+]1ccccc1`: the T/C is 112 % of control (endpoint: mean survival time, dose: 0.78 mg/kg/injection, schedule: Q01DX009 (ip), vehicle: saline); 120 % of control (endpoint: mean survival time, dose: 1.56 mg/kg/injection, schedule: Q01DX009 (ip), vehicle: saline); 120 % of control (endpoint: mean survival time, dose: 3.13 mg/kg/injection, schedule: Q01DX009 (ip), vehicle: saline).
